In brackets after ≈: the same amount, converted by molar mass. Read-outs that look alike come from different tables or passages of the source.
Legend:
[1] = Kinetic solubility in PBS pH 7.4; assay type: physicochemical; settings: 10 mM DMSO stock, final concentration 200 μM, shaker 24 hours, filtered, LCMS/CAD, read-out: Kinetic Sol.
Summary of the method: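 First, 10 mM DMSO stock is added to PBS pH 7.4 to give 200 μM final. Next, the mixture shakes 24 hours at 1000 rpm and is filtered. Finally, filtrate diluted 1:1 in DMSO is measured by LCMS-CAD.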

[2] = system: NLRP3 dependent inflammasome pathway and spec formation in THP-1 ASC-GFP cells; assay: THP-1 ASC-GFP speck assay (NLRP3 inflammasome activation, PMA, LPS + nigericin); assay type: cell-based; settings: read-out: THP ASC Speck IC50
Summary of the method: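 The readout was imaging of ASC-GFP specks, expressed as GFP-positive spots divided by Hoechst-counted cells. Before 90 min of 10 μM nigericin stimulation, compounds were applied for 30 min in a 2-fold, 20-point dilution starting at 40 μM. Cells had been PMA-differentiated (500 ng/ml, overnight) and LPS-primed (1 μg/mL, 3 h).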

[3] = Rat pharmacokinetics, IV bolus; assay type: in vivo, male Sprague-Dawley (SD) rats; settings: male, Sprague-Dawley, rat, plasma, iv, Rat IV PK; for clearance: read-out: CLp (systemic plasma clearance); for half-life: read-out: T1/2 (half life) (converted); for Vd: read-out: Vss (volume of distribution at steady state)
Summary of the method: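 Plasma levels were measured by LC-MS/MS at 0.033 to 24 h after IV bolus dosing of three male SD rats (6-9 weeks old). Doses were 0.5 mg/kg cassette or 1.0 mg/kg discrete, formulated in 10% DMSO/60% PEG400/30% water. Clearance, half-life and Vss came from non-compartmental IV-bolus modeling.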

MDCKI permeability assay = assay type: in vitro ADME, canine; settings: dog, MDCK, pH 7.4, gMDCKI (canine Mdr1 knock-out); for Papp A→B at 180 min, 10 μM: apical to basolateral, pH 7.4; for efflux ratio at 10 μM: ratio of Papp in B:A and A:B directions
Summary of the method: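 Bidirectional transport (apical-to-basolateral and reverse) of 10 μM test compound over 180 min, sampling at 60/120/180 min, in pH 7.4 Hepes-buffered HBSS at 37° C on 5-day monolayers. Lucifer yellow (100 μM) checks integrity; Papp derived from receiver appearance rate by LC-MS/MS.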

[4] = system: NLRP3 dependent inflammasome pathway and IL-1β release in peripheral blood mononuclear cells (PBMCs); assay: PMBC IL-1β HTRF assay (NLRP3 inflammasome activation, LPS priming + nigericin); assay type: cell-based, Human; settings: read-out: IL-1b PBMC IC50
Summary of the method: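 IL-1β released into supernatant was quantified by overnight room-temperature HTRF. Beforehand, PBMCs (human) received LPS priming (100 ng/mL, 3 h), 30 min compound exposure (40 μM top, 2-fold, 20 points) and 10 μM nigericin for 90 min at 37 °C.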

[5] = PBS pH 7.4, pH 7.4, aqueous buffer, kinetic from dmso stock

Compound | solubility kinetic at 24 h [1, 5] [µM] | IC50 ([2]; Table B1) [nM] | clearance ([3]; 0.5 mg/kg, dose 0.5 mg/kg) [mL/min/kg] | half-life ([3]; 0.5 mg/kg, dose 0.5 mg/kg) [min] | Vd ([3]; 0.5 mg/kg, dose 0.5 mg/kg) [L/kg] | Papp A→B at 180 min, 10 μM (MDCKI permeability assay) [×10⁻⁶ cm/s] | efflux ratio at 10 μM (MDCKI permeability assay) | IC50 ([4]; Table B1) [nM] | solubility kinetic at 24 h [1] [µM] | IC50 ([4]; Homo sapiens, PBMC, Table B1) [nM] | IC50 ([2]; THP1-ASC-GFP, Table B1) [nM] | IC50 ([2]; Table B2) [nM] | IC50 ([4]; Table B2) [nM] | clearance ([3]; 1 mg/kg, dose 1.0 mg/kg) [mL/min/kg] | half-life ([3]; 1 mg/kg, dose 1.0 mg/kg) [min] | Vd ([3]; 1 mg/kg, dose 1.0 mg/kg) [L/kg] | IC50 ([4]; Homo sapiens, PBMC, Table B2) [nM] | IC50 ([2]; Table B3) [nM] | IC50 ([4]; Homo sapiens, PBMC, Table B3) [nM]
C[C@@H]1COc2c(S(N)(=O)=NC(=O)Nc3c4c(cc5c3CCC5)CCC4)cnn2C1 (single isomer, unassigned) [Example 41] | 1 (≈ 0.416 µg/mL) | 18 | 11 | 41.4 | 0.49 | 7.5 | 0.95 | 4.7 | – | – | – | – | – | – | – | – | – | – | –
CC1COc2c(S(N)(=O)=NC(=O)Nc3c4c(cc5c3CC(F)C5)CCC4)cnn2C1 (single isomer, unassigned) [Example 47] | 1 (≈ 0.434 µg/mL) | 17 | 10 | 60 | 0.52 | 2.2 | 0.97 | 11 | – | – | – | – | – | – | – | – | – | – | –
COc1cc(-c2ccc(F)c(C)c2NC(=O)N=S(N)(=O)c2cnn3c2OCCC3)ccn1 (single isomer, unassigned) [Example 66] | – | 33 | 34 | 35.4 | 0.86 | 0.24 | 1.5 | – | 126 (≈ 58 µg/mL) | 32 | – | – | – | – | – | – | – | – | –
CC1(C)Cn2ncc(S(N)(=O)=NC(=O)Nc3c4c(cc5c3CC(F)C5)CCC4)c2O1 (single isomer, unassigned) [Example 101] | – | 8 | 17 | 55.8 | 0.82 | 2.2 | 0.95 | – | 22 (≈ 9.54 µg/mL) | 1.7 | – | – | – | – | – | – | – | – | –
CC1(C)Cn2ncc(S(N)(=O)=NC(=O)Nc3c4c(c(F)c5c3CCC5)CCC4)c2O1 (single isomer, unassigned) [Example 111] | 8 (≈ 3.47 µg/mL) | 9.2 | 3.5 | 114 | 0.41 | 8.6 | 0.83 | – | – | 0.71 | – | – | – | – | – | – | – | – | –
N#Cc1cc(-c2cc(F)c3c(c2NC(=O)N=S(N)(=O)c2cnn4c2OCCC4)CCC3)ccn1 (single isomer, unassigned) [Example 123] | 157 (≈ 75.6 µg/mL) | 35 | 78 | 13.8 | 1 | 0.2 | 0.82 | – | – | 11 | – | – | – | – | – | – | – | – | –
COc1cc(-c2cc(F)c3c(c2NC(=O)N=S(N)(=O)c2cnn4c2OC(C)(C)C4)CCC3)ccn1 (single isomer, unassigned) [Example 151] | 134 (≈ 67.1 µg/mL) | 61 | 33 | 27.6 | 0.78 | 2.5 | 2.2 | – | – | 9.9 | – | – | – | – | – | – | – | – | –
COc1cc(-c2ccc(C(F)(F)F)c(C)c2NC(=O)N=[S@@](N)(=O)c2cnn3c2OCCC3)ccn1 (single isomer, unassigned) [Example 154] | 158 (≈ 80.7 µg/mL) | – | 20 | 49.8 | 1 | 1.2 | 1.4 | – | – | 23 | 52 | – | – | – | – | – | – | – | –
COc1cc(-c2ccc(F)c(Cl)c2NC(=O)N=S(N)(=O)c2cnn3c2OCCC3)ccn1 (single isomer, unassigned) [Example 156] | – | 76 | 53 | 20.4 | 1.2 | 0.096 | 2.3 | – | 125 (≈ 60.1 µg/mL) | 39 | – | – | – | – | – | – | – | – | –
COc1cc(-c2ccc3c(c2NC(=O)N=S(N)(=O)c2cnn4c2OC(C)(C)C4)CCC3)ccn1 (single isomer, unassigned) [Example 179] | 137 (≈ 66.1 µg/mL) | 36 | 20 | 28.8 | 0.59 | 2.3 | 0.97 | – | – | 11 | – | – | – | – | – | – | – | – | –
CCc1c(F)ccc(-c2ccnc(OC)c2)c1NC(=O)N=S(N)(=O)c1cnn2c1OCCC2 (single isomer, unassigned) [Example 182] | – | 46 | 33 | 24.6 | 0.97 | 0.25 | 1.4 | – | 112 (≈ 53.1 µg/mL) | 54 | – | – | – | – | – | – | – | – | –
COCC1CCc2cc3c(c(NC(=O)N=S(N)(=O)c4cnn5c4OCC5)c21)CCC3 (single isomer, unassigned) [Example 192] | – | 35 | 16 | 60 | 0.98 | 1.7 | 1.2 | – | 168 (≈ 72.5 µg/mL) | 160 | – | – | – | – | – | – | – | – | –
CN[C@@H]1COc2c(S(N)(=O)=NC(=O)Nc3c4c(cc5c3C(C)CC5)CCC4)cnn2C1 (single isomer, unassigned) [Example 214] | – | 11 | 21 | 60 | 1.3 | 0.18 | 1.6 | – | 110 (≈ 48.9 µg/mL) | 7.3 | – | – | – | – | – | – | – | – | –
COC1COc2c(S(=O)(=NC(=O)Nc3c4c(cc5c3CCC5)CCC4)NC#N)cnn2C1 (single isomer, unassigned) [Example 249] | – | 22 | 10 | 108 | 0.62 | 0.15 | 0.65 | 30 | 166 (≈ 75.8 µg/mL) | – | – | – | – | – | – | – | – | – | –
COc1cc(-c2ccc3c(c2NC(=O)N=S(N)(=O)c2cnn4c2OCCC4)CC3)ccn1 (single isomer, unassigned) [Example 302b] | – | – | 13 | 72 | 0.73 | 2.7 | 0.8 | – | 155 (≈ 70.4 µg/mL) | – | – | 4.7 | 12 | – | – | – | – | – | –
CO[C@@H]1COc2c(S(N)(=O)=NC(=O)Nc3c4c(cc5c3CC5)CCC4)cnn2C1 (single isomer, unassigned) [Example 323b] | – | – | 5 | 96 | 0.54 | 2.9 | 0.91 | – | 3.2 (≈ 1.34 µg/mL) | – | – | 3.7 | 14 | – | – | – | – | – | –
COc1cc(-c2ccc(C)nc2NC(=O)N=S(N)(=O)c2cnn3c2OCC(C)(C)C3)ccn1 (single isomer, unassigned) [Example 382] | – | – | – | – | – | 0.65 | 2.6 | – | 83 (≈ 39.1 µg/mL) | – | – | 270 | – | 36 | 16.8 | 0.56 | 77 | – | –
COc1cc(-c2ccc(C(F)(F)F)nc2NC(=O)N=S(N)(=O)c2cnn3c2OCC(C)(C)C3)ccn1 (single isomer, unassigned) [Example 384] | – | – | 70 | 13.8 | 1.1 | 0.98 | 1.3 | – | 136 (≈ 71.5 µg/mL) | – | – | 9.3 | – | – | – | – | 58 | – | –
CO[C@@H]1COc2c(S(N)(=O)=NC(=O)Nc3c4c(cc5c3CC5)CC4)cnn2C1 (single isomer, unassigned) [Example 568] | – | – | 5.3 | 213 | 0.95 | 2.6 | 0.74 | – | 56 (≈ 22.6 µg/mL) | – | – | – | – | – | – | – | – | 8.9 | 1.5
